Measurements as given in ChEMBL document CHEMBL1201862, “PubChem BioAssay data set” (2004).
Each block holds one molecule with its values, some of them ahead of it. Calls of active or inactive are those of the source.

How the values were obtained:
Kallikrein-7 = Kallikrein-7 (Homo sapiens, UniProt P49862); assay: Fluorescence Intensity-based biochemical primary high throughput dose response assay to identify activators of kallikrein-7 (K7) zymogen.
[1] = target: T1, Histone-lysine N-methyltransferase NSD2 (Homo sapiens, UniProt O96028); type: biochemical
T1 sequence (O96028 whole entry): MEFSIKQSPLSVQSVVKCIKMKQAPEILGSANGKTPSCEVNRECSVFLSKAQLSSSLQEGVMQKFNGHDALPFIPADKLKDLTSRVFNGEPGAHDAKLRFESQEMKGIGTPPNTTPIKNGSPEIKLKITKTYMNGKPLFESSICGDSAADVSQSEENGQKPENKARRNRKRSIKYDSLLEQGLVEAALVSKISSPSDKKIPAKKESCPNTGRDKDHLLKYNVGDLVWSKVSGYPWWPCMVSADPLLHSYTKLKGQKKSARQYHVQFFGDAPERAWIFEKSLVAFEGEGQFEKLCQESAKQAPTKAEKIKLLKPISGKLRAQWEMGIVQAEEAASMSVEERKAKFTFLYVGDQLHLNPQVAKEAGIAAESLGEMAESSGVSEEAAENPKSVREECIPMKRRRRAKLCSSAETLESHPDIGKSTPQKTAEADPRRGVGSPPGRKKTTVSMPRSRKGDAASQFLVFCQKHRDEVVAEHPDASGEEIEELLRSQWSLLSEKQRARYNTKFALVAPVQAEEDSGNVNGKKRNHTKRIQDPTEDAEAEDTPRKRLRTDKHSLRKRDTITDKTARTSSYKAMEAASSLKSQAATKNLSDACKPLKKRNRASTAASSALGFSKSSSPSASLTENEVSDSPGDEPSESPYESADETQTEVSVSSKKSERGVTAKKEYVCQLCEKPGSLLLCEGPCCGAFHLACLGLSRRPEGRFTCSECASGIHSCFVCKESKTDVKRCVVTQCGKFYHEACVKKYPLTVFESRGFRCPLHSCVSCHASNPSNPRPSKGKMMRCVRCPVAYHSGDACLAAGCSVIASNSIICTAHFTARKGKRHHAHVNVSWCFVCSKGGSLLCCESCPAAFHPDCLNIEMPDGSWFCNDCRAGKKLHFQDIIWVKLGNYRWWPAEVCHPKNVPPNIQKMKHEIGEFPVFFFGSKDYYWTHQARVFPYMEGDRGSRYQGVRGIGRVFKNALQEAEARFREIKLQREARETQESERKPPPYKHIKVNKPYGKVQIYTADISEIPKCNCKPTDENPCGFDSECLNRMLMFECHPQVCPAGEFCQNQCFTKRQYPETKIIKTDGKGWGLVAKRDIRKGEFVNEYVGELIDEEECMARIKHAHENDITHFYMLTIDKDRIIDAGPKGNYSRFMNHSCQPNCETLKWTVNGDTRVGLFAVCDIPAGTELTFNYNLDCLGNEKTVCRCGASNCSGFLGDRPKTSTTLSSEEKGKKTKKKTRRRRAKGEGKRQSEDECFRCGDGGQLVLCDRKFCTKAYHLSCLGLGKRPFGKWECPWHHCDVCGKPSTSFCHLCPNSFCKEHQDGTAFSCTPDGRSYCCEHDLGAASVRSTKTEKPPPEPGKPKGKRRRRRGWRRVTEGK

[2] = Counterscreen for IDE inhibitors: Luminescence-based cell-based high throughput dose response assay to identify compounds that are cytotoxic to HEK cells. [Related pubchem assays: 434962 (Primary screen (IDE inhibitors in singlicate)), 449730 (Counterscreen (Cytotoxicity in triplicate)), 435028 (Confirmation (IDE inhibitors in triplicate)) …; type: functional; details: HEK293
Aminopeptidase N = target: T2, Aminopeptidase N (Plasmodium falciparum FcB1/Columbia, UniProt O96935); assay: malaria alanyl aminopeptidase activity blockers – biochemical, fluorogenic H-Leu-NHMec substrate, 1536-well (AID 1445); set-up: species or system Plasmodium falciparum 3D7, 3D7
T2 sequence (O96935 whole entry): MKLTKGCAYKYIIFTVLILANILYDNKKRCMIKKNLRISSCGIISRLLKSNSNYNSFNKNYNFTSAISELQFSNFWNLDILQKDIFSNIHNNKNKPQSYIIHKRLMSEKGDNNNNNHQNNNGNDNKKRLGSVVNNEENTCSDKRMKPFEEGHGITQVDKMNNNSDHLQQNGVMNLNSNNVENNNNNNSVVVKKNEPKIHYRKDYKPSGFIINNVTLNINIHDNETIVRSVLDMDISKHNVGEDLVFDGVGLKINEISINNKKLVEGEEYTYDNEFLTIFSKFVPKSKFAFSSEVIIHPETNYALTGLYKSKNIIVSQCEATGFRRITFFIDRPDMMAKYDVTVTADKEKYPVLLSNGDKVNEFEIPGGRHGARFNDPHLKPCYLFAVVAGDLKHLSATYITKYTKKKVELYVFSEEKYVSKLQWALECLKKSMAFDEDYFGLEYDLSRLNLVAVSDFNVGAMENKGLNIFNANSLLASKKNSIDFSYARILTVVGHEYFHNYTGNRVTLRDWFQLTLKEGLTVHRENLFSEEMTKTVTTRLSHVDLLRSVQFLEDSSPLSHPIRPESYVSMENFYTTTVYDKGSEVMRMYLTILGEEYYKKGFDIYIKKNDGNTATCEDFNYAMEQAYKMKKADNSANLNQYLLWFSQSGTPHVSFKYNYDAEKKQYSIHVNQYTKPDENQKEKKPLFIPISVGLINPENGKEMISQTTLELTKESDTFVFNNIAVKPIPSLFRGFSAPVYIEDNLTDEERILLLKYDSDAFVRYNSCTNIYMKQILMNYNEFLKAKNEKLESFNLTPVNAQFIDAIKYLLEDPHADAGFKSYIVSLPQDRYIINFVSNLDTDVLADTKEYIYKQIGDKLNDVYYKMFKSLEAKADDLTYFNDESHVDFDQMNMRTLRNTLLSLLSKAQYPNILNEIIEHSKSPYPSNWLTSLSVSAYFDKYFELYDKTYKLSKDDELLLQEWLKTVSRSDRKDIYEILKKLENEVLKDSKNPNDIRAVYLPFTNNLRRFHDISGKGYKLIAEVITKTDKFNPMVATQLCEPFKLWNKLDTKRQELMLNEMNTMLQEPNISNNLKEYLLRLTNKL

[3] = target: Transitional endoplasmic reticulum ATPase (Homo sapiens, UniProt P55072, C522A); assay: C522A mutant p97 ATPase inhibitors, dose response, counter-screen for p97 inhibitor project, biochemical, luminescence (AID 1544)
Transitional endoplasmic reticulum ATPase (Homo sapiens, UniProt P55072, C522A), sequence (P55072 2-806 C522A limits assumed): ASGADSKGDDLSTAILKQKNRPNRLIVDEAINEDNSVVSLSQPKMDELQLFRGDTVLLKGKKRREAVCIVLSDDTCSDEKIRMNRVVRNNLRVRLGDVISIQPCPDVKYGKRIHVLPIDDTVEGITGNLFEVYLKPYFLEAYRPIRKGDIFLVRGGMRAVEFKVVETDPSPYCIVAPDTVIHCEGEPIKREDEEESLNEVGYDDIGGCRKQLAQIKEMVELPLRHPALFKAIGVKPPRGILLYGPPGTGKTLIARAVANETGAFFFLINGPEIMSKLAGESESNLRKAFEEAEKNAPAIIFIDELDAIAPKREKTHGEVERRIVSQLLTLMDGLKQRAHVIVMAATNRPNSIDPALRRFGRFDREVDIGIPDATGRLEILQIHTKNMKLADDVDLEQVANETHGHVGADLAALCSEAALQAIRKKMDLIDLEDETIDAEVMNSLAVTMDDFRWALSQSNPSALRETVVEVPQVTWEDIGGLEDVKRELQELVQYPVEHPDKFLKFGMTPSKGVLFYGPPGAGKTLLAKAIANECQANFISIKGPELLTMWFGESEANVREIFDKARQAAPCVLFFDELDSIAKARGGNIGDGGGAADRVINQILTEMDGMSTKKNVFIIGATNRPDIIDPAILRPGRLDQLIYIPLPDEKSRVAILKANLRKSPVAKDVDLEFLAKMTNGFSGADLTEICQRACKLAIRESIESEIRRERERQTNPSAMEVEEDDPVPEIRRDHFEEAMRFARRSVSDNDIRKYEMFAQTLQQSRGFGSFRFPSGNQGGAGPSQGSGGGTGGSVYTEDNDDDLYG

Insulin-degrading enzyme = target: T3, Insulin-degrading enzyme (Homo sapiens, UniProt P14735); assay: Dose Response: Fluorescence polarization-based cell-based high throughput dose response assay for inhibitors of insulin-degrading enzyme (IDE). [Related pubchem assays: 434962 (Primary screen (IDE inhibitors in singlicate)), 449730 (Counterscreen (Cytotoxicity in triplicate)), 435028 (Confirmation (IDE inhibitors in triplicate)), 434984 (Summary …; type: functional
T3 sequence (P14735 whole entry): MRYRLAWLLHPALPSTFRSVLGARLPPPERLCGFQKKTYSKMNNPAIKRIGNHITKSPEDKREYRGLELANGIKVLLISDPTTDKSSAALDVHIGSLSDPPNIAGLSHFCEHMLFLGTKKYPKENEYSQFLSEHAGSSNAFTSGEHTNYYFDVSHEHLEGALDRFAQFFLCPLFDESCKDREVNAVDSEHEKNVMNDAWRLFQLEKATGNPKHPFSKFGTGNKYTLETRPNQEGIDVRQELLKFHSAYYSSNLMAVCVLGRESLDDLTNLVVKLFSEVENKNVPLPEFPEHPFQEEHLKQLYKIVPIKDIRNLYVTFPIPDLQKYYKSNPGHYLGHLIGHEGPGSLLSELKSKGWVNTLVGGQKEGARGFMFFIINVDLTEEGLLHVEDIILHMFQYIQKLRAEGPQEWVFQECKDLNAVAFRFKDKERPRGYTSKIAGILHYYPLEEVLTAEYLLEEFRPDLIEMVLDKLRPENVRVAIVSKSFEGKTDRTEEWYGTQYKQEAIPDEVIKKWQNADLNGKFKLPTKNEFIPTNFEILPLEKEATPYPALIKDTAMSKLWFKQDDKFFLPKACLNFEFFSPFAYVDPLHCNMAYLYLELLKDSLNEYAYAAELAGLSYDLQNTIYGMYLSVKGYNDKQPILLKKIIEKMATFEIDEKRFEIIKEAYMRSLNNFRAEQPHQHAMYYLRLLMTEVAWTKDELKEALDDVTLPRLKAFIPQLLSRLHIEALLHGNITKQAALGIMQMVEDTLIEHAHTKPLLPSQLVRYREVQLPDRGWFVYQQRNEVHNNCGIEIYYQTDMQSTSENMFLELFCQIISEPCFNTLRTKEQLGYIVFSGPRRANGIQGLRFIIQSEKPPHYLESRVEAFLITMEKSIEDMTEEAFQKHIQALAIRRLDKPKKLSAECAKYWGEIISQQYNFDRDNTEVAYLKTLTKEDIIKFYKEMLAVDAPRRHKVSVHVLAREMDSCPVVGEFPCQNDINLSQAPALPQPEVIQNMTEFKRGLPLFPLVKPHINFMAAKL

[4] = target: Transitional endoplasmic reticulum ATPase (Homo sapiens, UniProt P55072); assay: p97 ATPase inhibitors, dose response, biochemical (AID 1534)
Transitional endoplasmic reticulum ATPase (Homo sapiens, UniProt P55072), sequence (P55072 whole entry, the tested form may be a part): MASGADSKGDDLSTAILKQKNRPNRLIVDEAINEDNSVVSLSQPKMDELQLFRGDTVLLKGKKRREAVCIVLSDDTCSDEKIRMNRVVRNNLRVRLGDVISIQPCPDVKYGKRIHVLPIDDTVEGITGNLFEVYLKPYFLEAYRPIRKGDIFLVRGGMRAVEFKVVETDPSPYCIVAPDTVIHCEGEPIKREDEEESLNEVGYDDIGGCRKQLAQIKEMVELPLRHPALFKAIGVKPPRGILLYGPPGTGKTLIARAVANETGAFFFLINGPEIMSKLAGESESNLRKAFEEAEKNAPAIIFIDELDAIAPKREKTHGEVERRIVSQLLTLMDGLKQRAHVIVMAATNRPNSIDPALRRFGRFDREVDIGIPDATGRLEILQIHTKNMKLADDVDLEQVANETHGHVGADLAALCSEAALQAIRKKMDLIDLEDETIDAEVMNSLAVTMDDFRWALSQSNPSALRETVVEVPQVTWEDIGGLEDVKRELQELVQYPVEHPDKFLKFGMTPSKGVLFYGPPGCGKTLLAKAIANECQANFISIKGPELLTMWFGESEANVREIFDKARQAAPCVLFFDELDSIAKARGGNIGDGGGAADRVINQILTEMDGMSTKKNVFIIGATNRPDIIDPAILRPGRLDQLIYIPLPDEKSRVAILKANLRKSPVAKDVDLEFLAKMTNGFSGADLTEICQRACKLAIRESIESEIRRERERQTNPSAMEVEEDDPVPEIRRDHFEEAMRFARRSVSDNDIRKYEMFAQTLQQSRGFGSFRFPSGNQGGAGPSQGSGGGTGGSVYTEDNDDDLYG

[5] = viability loss in CEM21 cells – cell-based, CellTiter-Glo luminescence, cherry-picked, cytotoxicity control for viral fusion inhibitor project, dose response (AID 652042); type: functional;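 note: potency for signal decrease meaning cytotoxicity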
[6] = inhibition of Env-driven cell fusion – HIV entry, plate reader, dry powder, dose response (AID 687023); type: functional, cell-based
[7] = blockers of HIV-1 envelope-mediated cell-cell fusion – cherry-pick, dose response (AID 652057); type: functional, cell-based
[8] = HIV-1 AD8 envelope cell-cell fusion blockers – cherry-pick, dose response (AID 652062); type: functional, cell-based;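 note: luciferase signal from cell-cell fusion driven by HIV-1 clade B AD8 Env; potency is for inhibitors of fusion seen as a drop in luminescence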
[9] = toxicity to human hepatoma HepG2 cells – cell-based, cherry-picked samples, cytotoxicity control, dose response (AID 1159577); type: functional
[10] = P. falciparum Dd2 growth inhibitors, dose response, SYBR Green, cherry-picked samples (AID 1159567); type: functional, cell-based
[11] = PAX5 cellular inhibition readout – cell-based, plate reader, dry powder samples, selectivity assay for PAX8 inhibitor project, dose response (AID 743047); type: functional;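 note: HEK293 cells carrying a Pax5 driven CD19 promoter luciferase reporter; potency of inhibitors that lower reporter luminescence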
[12] = OVCAR8 cell viability loss – plate reader, dry powder samples, PAX8 project, dose response (AID 743197); type: functional, cell-based; details: OVCAR-8
Paired box protein Pax-8 = Paired box protein Pax-8 (Homo sapiens, UniProt Q06710); assay: PAX8 transcriptional activity inhibition in RMG-I – RMG-I cells, luciferase, cherry-pick, dose response (AID 687027); type: functional, cell-based;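 note: luciferase reporter driven by Pax8 target thyroperoxidase promoter measured by SteadyGlo luminescence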
Paired box protein Pax-8, sequence (Q06710 whole entry): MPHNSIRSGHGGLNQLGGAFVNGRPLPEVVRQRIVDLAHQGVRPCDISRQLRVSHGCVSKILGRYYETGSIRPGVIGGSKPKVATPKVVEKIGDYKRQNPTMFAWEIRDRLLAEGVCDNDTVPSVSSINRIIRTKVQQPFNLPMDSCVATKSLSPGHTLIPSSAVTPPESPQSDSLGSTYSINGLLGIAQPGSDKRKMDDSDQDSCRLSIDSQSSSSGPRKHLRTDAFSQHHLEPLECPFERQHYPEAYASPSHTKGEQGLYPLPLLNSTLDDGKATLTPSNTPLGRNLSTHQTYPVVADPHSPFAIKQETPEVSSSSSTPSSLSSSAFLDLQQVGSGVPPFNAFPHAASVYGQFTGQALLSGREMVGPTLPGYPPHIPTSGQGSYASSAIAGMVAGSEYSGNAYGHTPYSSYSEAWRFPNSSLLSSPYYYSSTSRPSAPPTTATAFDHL

[13] = OV-90 cell viability loss – plate reader, dry powder, SA8, PAX8 inhibitor project, dose response (AID 743149); type: functional, cell-based
[14] = CMV-driven luciferase expression suppression in HEK293 – cell-based, luminescence, dry powder, counter-screen for Pax8 inhibitor project, dose response (AID 743020); type: functional
[15] = inhibitors acting on PAX2 in cells – cell-based, plate reader, dry powder samples, selectivity assay for PAX8 inhibitor project, dose response (AID 743048); type: functional;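 note: HEK293 cells carrying a WT1 promoter luciferase reporter driven by expressed Pax2; potency is for inhibition of Pax2 driven reporter signal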
[16] = COV434 cell viability loss – plate reader, dry powder, SA7, cytotoxicity control for PAX8 inhibitor project, dose response (AID 743145); type: functional, cell-based
[17] = PAX8-dependent cell viability loss – plate reader, dry powder, dose response (AID 743049); type: functional, cell-based
[18] = general mammalian cell viability loss – activator set, cherry-pick, cytotoxicity control for miR-122 modulator project, dose response (AID 720690); type: functional, cell-based;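 note: HEK293T human cells scored for general mammalian cytotoxicity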
[19] = target: NAD-dependent protein deacylase sirtuin-5, mitochondrial (Homo sapiens, UniProt Q9NXA8); assay: blockers of sirtuin-5 peptide desuccinylation – biochemical, fluorescence imaging, cherry-pick, set 6, dose response (AID 720597)
NAD-dependent protein deacylase sirtuin-5, mitochondrial, sequence (Q9NXA8 whole entry): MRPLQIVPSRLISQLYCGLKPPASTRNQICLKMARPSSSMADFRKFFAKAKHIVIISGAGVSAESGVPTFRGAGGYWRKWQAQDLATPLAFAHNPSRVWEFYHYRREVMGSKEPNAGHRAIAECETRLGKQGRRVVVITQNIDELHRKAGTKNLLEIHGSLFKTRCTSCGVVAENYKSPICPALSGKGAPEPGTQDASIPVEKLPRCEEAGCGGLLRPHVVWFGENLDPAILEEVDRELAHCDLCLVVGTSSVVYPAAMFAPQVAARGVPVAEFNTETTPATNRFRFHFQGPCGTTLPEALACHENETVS

[20] = anti-trypanosomal activity in BESM host cells – imaging, CA-I/72 strain, bovine embryo skeletal muscle, dry powder, dose response (AID 651885); type: functional, cell-based
[21] = T. cruzi growth inhibition in host cells, dose response, cell-based, plate reader, dry powder, set 2 (AID 652275); type: functional
[22] = Trypanosoma cruzi replication inhibitors in host cells – cell-based, plate reader, dry powder samples, dose response (AID 651845); type: functional

Kallikrein-7, sequence (P49862 whole entry): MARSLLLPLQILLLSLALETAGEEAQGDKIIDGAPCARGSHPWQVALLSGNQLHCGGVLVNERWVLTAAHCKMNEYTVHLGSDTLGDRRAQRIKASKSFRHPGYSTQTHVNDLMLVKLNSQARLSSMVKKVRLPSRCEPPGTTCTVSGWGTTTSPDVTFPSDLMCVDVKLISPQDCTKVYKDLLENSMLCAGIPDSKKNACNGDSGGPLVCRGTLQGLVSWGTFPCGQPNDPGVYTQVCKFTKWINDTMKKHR

SMILES: N=C1/C(=C\c2coc3ccccc3c2=O)C(=O)N=C2SC(c3ccncc3)=NN12
- EC50 (Kallikrein-7): > 7.72 µM (active)
- AC50 [1]: 18.8 µM (active)
- IC50 [2]: 30.1 µM (not active)
- IC50 (Aminopeptidase N): 44 µM (active)
- IC50 [3]: 9.26 µM (active)
- IC50 (Insulin-degrading enzyme): > 18.6 µM (not active)
- IC50 [4]: 11.1 µM (not active)

SMILES: CO[C@@H]1CN(C)C(=O)c2ccc(NC(=O)Nc3cccc(F)c3)cc2OC[C@@H](C)N(C(=O)Nc2cccc(F)c2)C[C@H]1C
- AC50 [5]: 61.4 µM (active)
- AC50 [6]: 8.94 µM (active)
- AC50 [7]: 3.17 µM (active)
- AC50 [8]: 61 µM (active)
- AC50 [9]: > 42 µM (inactive)
- AC50 [10]: 3.07 µM (active)

SMILES: C[C@H](CO)N1C[C@H](C)[C@@H](CN(C)Cc2ccc(C(F)(F)F)cc2)Oc2ccc(NS(=O)(=O)c3ccc(Cl)cc3)cc2CC1=O
- AC50 [11]: 29.8 µM (active)
- AC50 [12]: > 70 µM (inactive)
- AC50 (Paired box protein Pax-8): 11.2 µM (active)
- AC50 [13]: 39 µM (active)
- AC50 [14]: 41.8 µM (active)
- AC50 [15]: 28.6 µM (active)
- AC50 [16]: 37.7 µM (active)
- AC50 [17]: 21.9 µM (active)
- AC50 [18]: 12.9 µM (active)

- AC50 [19]: > 30 µM (inactive)
SMILES: CO[C@H]1CN(C)C(=O)c2ccc(NC(=O)C3CC3)cc2OC[C@@H](C)N(C(=O)c2ccccc2F)C[C@H]1C

SMILES: C[C@@H]1CN([C@@H](C)CO)C(=O)c2cccc(NC(=O)c3ccncc3)c2O[C@H]1CN(C)Cc1cccc(Cl)c1
- IC50 [20]: 0.0074 µM (active)
- AC50 [21]: 0.0169 µM (active)
- AC50 [22]: 0.0706 µM (active)
